Results as given in PubChem BioAssay (NCI).
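Assay format: 96-well plates, 48-hour exposure. GI50: concentration for 50% inhibition of growth. The concentration for full growth arrest is given as TGI.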

Assays:
Test in all cases: NCI tumour cell line growth inhibition, 48 h
A498 renal = system: A498 renal
SK-MEL-28 melanoma = system: SK-MEL-28 melanoma
UACC-257 melanoma = system: UACC-257 melanoma
SW-620 colon = system: SW-620 colon
TK-10 renal = system: TK-10 renal
MALME-3M melanoma = system: MALME-3M melanoma
SNB-75 CNS = system: SNB-75 CNS
NCI-H23 lung = system: NCI-H23 lung
CCRF-CEM leukemia = system: CCRF-CEM leukemia
OVCAR-5 ovarian = system: OVCAR-5 ovarian

Row | Structure (SMILES) | TGI (A498 renal) [µM] | TGI (SK-MEL-28 melanoma) [µM] | TGI (UACC-257 melanoma) [µM] | TGI (SW-620 colon) [µM] | TGI (TK-10 renal) [µM] | TGI (MALME-3M melanoma) [µM] | TGI (SNB-75 CNS) [µM] | TGI (NCI-H23 lung) [µM] | TGI (CCRF-CEM leukemia) [µM] | TGI (OVCAR-5 ovarian) [µM] | GI50 (A498 renal) [µM] | GI50 (SK-MEL-28 melanoma) [µM] | GI50 (SW-620 colon) [µM] | GI50 (TK-10 renal) [µM] | GI50 (MALME-3M melanoma) [µM] | GI50 (SNB-75 CNS) [µM] | GI50 (NCI-H23 lung) [µM] | GI50 (CCRF-CEM leukemia) [µM] | GI50 (OVCAR-5 ovarian) [µM] | GI50 (UACC-257 melanoma) [µM]
1 | O=C(O)c1ccccc1[Se][Se]c1ccccc1C(=O)O | > 100 | > 100 | > 100 | > 100 | > 100 | > 100 | > 100 | > 100 | > 100 | – | – | – | – | – | – | – | – | – | – | –
2 | O=C1C2C(C(=O)N1OS(=O)(=O)c1ccccc1)N(Cc1ccccc1)C(=O)N2Cc1ccccc1 (stereo not drawn) | > 100 | > 100 | > 100 | > 100 | > 100 | > 100 | > 100 | > 100 | > 100 | > 100 | – | – | – | – | – | – | – | – | – | –
3 | CSc1nc2c(c(=O)[nH]1)N=C1c3ccccc3C(=O)C1C(c1ccccc1)N2 (stereo not drawn) | 38 | > 100 | – | > 100 | > 100 | > 100 | 8.78 | > 100 | > 100 | > 100 | 2 | 3.73 | 2.92 | 73.6 | 2.33 | 1.27 | 5.82 | 6.92 | 63.4 | –
4 | Cc1cc(I)cc(CN(C)CCCCN2CCCCC2)c1O | 25.4 | 15.8 | 15.1 | 27.5 | 31.1 | 28 | 32.8 | > 100 | – | 40.5 | 11.4 | 4.21 | 13.3 | 15.4 | 12.7 | 15 | 24.7 | – | 14.3 | 4.2
5 | Cc1ccc(NC2=C(Cl)C(=O)N(Cc3ccccc3)C2=O)cc1O | 33.1 | > 100 | > 100 | > 100 | > 100 | > 100 | – | > 100 | > 100 | > 100 | 7.18 | 52.8 | 39.2 | 31.3 | 24.1 | – | 34.3 | 29.6 | > 100 | 39.5
6 | CC1=C(C(=O)Nc2ccc(Cl)c(Cl)c2)C(c2cccc(Oc3ccccc3)c2)NC(=S)N1 (stereo not drawn) | – | – | 22 | 15 | 19.7 | – | 18.4 | – | – | 18.7 | – | – | 8.23 | 11.3 | – | 8.26 | – | – | 9.38 | 9.73
7 | O=C(COc1ccc(Br)cc1Br)N1N=C(c2ccc([N+](=O)[O-])o2)CC1(O)c1ccccc1 (stereo not drawn) | 23.8 | 28 | 45.4 | 33.3 | – | 25.1 | 45 | 36 | 14.8 | 98.2 | – | – | – | – | – | – | – | – | – | –
8 | CC(=O)NNc1nc(C)c(C(=O)NNC(=O)C(=O)Nc2c(Cl)cc([N+](=O)[O-])cc2Cl)s1 | 66.3 | 69.8 | 68.7 | 78.5 | > 100 | > 100 | – | 36.7 | 93.4 | 93.4 | – | – | – | – | – | – | – | – | – | –
9 | CC(=O)NNc1nc(C)c(C(=O)NNC(=O)C(=O)Nc2ccc(Cl)cc2)s1 | – | > 100 | > 100 | > 100 | > 100 | > 100 | – | > 100 | > 100 | > 100 | – | – | – | – | – | – | – | – | – | –
10 | COc1cc(CNc2cnc3cc(N)cc(N)c3n2)cc(OC)c1 | – | – | – | 64.2 | 57.6 | – | – | 39.8 | 52.3 | 48 | – | – | 24.6 | 18.4 | – | – | 17.3 | 18.5 | 17.6 | –
11 | Cc1coc2c1CC1(C)C(CCC(O)C1C)C2 (stereo not drawn) | > 100 | – | > 100 | > 100 | > 100 | > 100 | > 100 | > 100 | > 100 | > 100 | – | – | – | – | – | – | – | – | – | –
12 | COC(=O)CC1CCN(C#N)CC1CC[N+](=O)[O-] (stereo not drawn) | > 100 | > 100 | > 100 | > 100 | > 100 | > 100 | > 100 | – | > 100 | – | – | – | – | – | – | – | – | – | – | –
13 | NC(=O)c1sc(-n2cnc3ccccc32)cc1OCc1ccccc1Br | 14.4 | > 25 | > 25 | > 25 | > 25 | – | > 25 | > 25 | > 25 | > 25 | 4.11 | > 25 | 1.17 | 11.3 | – | 10.2 | 4.03 | 1.34 | 4.94 | 17.3
14 | O=C(O)CSc1ccc([N+](=O)[O-])cc1[N+](=O)[O-] | > 100 | > 100 | > 100 | > 100 | > 100 | > 100 | > 100 | > 100 | – | > 100 | – | – | – | – | – | – | – | – | – | –
